In brackets after ≈: the same amount, converted by molar mass. Read-outs that look alike come from different tables or passages of the source.
Legend:
Assay type in all cases: cell-based
[1] = tested on: clinical MDR E. coli isolates; test: MIC, clinical multi-drug resistant E. coli isolates; details: for MIC: Escherichia coli
Procedure: (§1) Minimum inhibitory concentration (MIC) values were determined according to the Clinical Laboratory Standards Institute guidelines. Frequency of resistance was determined by plating ~5 × 10^8 bacterial cells on agar-solidified media plates containing test compound at concentrations corresponding to four times the measured solid-media MIC of the strains. Colonies were counted after 24 h, restreaked onto media containing the same concentration of compound, and the MIC remeasured against the assayed compound. Genomic DNA from isolated clones was sequenced by paired-end sequencing on an Illumina MiSeq device. Complete experimental details available in SI Appendix. […]
(§2) Minimum inhibitory concentration (MIC) determination. Broth microdilution and agar dilution MIC assays were conducted according to CLSI guidelines (M07-2012). Appropriate inoculation suspension density was assessed using a Sensititre Nephelometer with a Sensititre 0.5 […]
(§3) McFarland Standard. […]
Whole-genome sequencing and data analysis. Genomic DNA of selected clones was prepared using an Epicentre MasterPure Complete DNA Purification Kit. Whole-genome sequencing libraries were prepared using an Illumina Nextera XT Library Preparation Kit. The libraries were sequenced using an Illumina MiSeq device with a V3 600-cycle reagent kit. Whole-genome sequencing data was analyzed using CLC Genomics Workbench Version 11. To determine the genotype of MDR strains from the ENABLE strain collection, de novo assembled contigs were […]

E. coli ATCC 25922 = test: MIC (CLSI broth microdilution), wild-type E. coli; details: ATCC 25922 (Table S4); for MIC: Escherichia coli, ATCC25922, read-out: MIC E. coli EN0001
Procedure: as §1
Minimum inhibitory concentration (MIC) determination. Broth microdilution and agar dilution
MIC assays were conducted according to CLSI guidelines (M07-2012). Appropriate inoculation
suspension density was assessed using a Sensititre Nephelometer with a Sensititre 0.5
as §3

[2] = tested on: clinical MDR K. pneumoniae isolates; test: MIC, clinical multi-drug resistant K. pneumoniae isolates; details: for MIC: Klebsiella pneumoniae
Procedure: as §1, §2, §3
To determine the […]
genotype of MDR strains from the ENABLE strain collection, de novo assembled contigs were […]

[3] = read-out: MIC K. pneumoniae EN0140
[4] = read-out: MIC K. pneumoniae EN0142
[5] = read-out: MIC K. pneumoniae EN0143
[6] = read-out: MIC K. pneumoniae EN0144
[7] = read-out: MIC K. pneumoniae EN0145
[8] = read-out: MIC K. pneumoniae EN0233
[9] = read-out: MIC K. pneumoniae EN0245
[10] = read-out: MIC K. pneumoniae EN0504

## C[C@@H](O)[C@H]1C(=O)N2C(C(=O)O)=C(S[C@@H]3CN[C@H](C(=O)N(C)C)C3)[C@H](C)[C@H]12 [Meropenem]
[1]; read-out: MIC E. coli EN0134
  MIC: ≤ 0.125 µg/mL
[1]; read-out: MIC E. coli EN0135
  MIC: ≤ 0.125 µg/mL
[1]; read-out: MIC E. coli EN0136
  MIC: ≤ 0.125 µg/mL
[1]; read-out: MIC E. coli EN0137
  MIC: ≤ 0.125 µg/mL
[1]; read-out: MIC E. coli EN0138
  MIC: ≤ 0.125 µg/mL
[1]; read-out: MIC E. coli EN0139
  MIC: ≤ 0.125 µg/mL
[1]; read-out: MIC E. coli EN0303
  MIC: ≤ 0.125 µg/mL
[1]; read-out: MIC E. coli EN0481
  MIC: ≤ 0.125 µg/mL
E. coli ATCC 25922
  MIC: ≤ 0.125 µg/mL
[2]; [3]
  MIC: 2 µg/mL (≈ 5.22 µM)
[2]; [4]
  MIC: 0.5 µg/mL (≈ 1.3 µM)
[2]; [5]
  MIC: ≤ 0.125 µg/mL
[2]; [6]
  MIC: 64 µg/mL (≈ 167 µM)
[2]; [7]
  MIC: 8 µg/mL (≈ 20.9 µM)
[2]; [8]
  MIC: 2 µg/mL (≈ 5.22 µM)
[2]; [9]
  MIC: 2 µg/mL (≈ 5.22 µM)
[2]; [10]
  MIC: 4 µg/mL (≈ 10.4 µM)

## CO/N=C(\C(=O)N[C@@H]1C(=O)N2C(C(=O)O)=C(COC(C)=O)CS[C@H]12)c1csc(N)n1 [Cefotaxime]
[1]; read-out: MIC E. coli EN0134
  MIC: 8 µg/mL (≈ 17.6 µM)
[1]; read-out: MIC E. coli EN0135
  MIC: 2 µg/mL (≈ 4.39 µM)
[1]; read-out: MIC E. coli EN0136
  MIC: 4 µg/mL (≈ 8.78 µM)
[1]; read-out: MIC E. coli EN0137
  MIC: > 64 µg/mL
[1]; read-out: MIC E. coli EN0138
  MIC: > 64 µg/mL
[1]; read-out: MIC E. coli EN0139
  MIC: > 64 µg/mL
[1]; read-out: MIC E. coli EN0303
  MIC: > 64 µg/mL
[1]; read-out: MIC E. coli EN0481
  MIC: > 64 µg/mL
E. coli ATCC 25922
  MIC: 0.5 µg/mL (≈ 1.1 µM)
[2]; [3]
  MIC: > 64 µg/mL
[2]; [4]
  MIC: > 64 µg/mL
[2]; [5]
  MIC: 16 µg/mL (≈ 35.1 µM)
[2]; [6]
  MIC: > 64 µg/mL
[2]; [7]
  MIC: > 64 µg/mL
[2]; [8]
  MIC: > 64 µg/mL
[2]; [9]
  MIC: 64 µg/mL (≈ 141 µM)
[2]; [10]
  MIC: > 64 µg/mL

## CNC(C)C1CCC(N)C(OC2C(N)CC(N)C(OC3OCC(C)(O)C(NC)C3O)C2O)O1 (centres unmarked) [Gentamicin]
[1]; read-out: MIC E. coli EN0134
  MIC: 2 µg/mL (≈ 4.19 µM)
[1]; read-out: MIC E. coli EN0135
  MIC: > 64 µg/mL
[1]; read-out: MIC E. coli EN0136
  MIC: > 64 µg/mL
[1]; read-out: MIC E. coli EN0137
  MIC: > 64 µg/mL
[1]; read-out: MIC E. coli EN0138
  MIC: 8 µg/mL (≈ 16.8 µM)
[1]; read-out: MIC E. coli EN0139
  MIC: 2 µg/mL (≈ 4.19 µM)
[1]; read-out: MIC E. coli EN0303
  MIC: 2 µg/mL (≈ 4.19 µM)
[1]; read-out: MIC E. coli EN0481
  MIC: > 64 µg/mL
E. coli ATCC 25922
  MIC: 1 µg/mL (≈ 2.09 µM)
[2]; [3]
  MIC: > 64 µg/mL
[2]; [4]
  MIC: 64 µg/mL (≈ 134 µM)
[2]; [5]
  MIC: 0.5 µg/mL (≈ 1.05 µM)
[2]; [6]
  MIC: > 64 µg/mL
[2]; [7]
  MIC: 2 µg/mL (≈ 4.19 µM)
[2]; [8]
  MIC: > 64 µg/mL
[2]; [9]
  MIC: 2 µg/mL (≈ 4.19 µM)
[2]; [10]
  MIC: 0.5 µg/mL (≈ 1.05 µM)

## Colistin
[1]; MDR (aac(3)-IIa, blaTEM-1B, blaSHV-12 ...)
  MIC E. coli EN0135: 2 µg/mL
[1]; MDR (blaCMY-4, blaTEM-1B ...)
  MIC E. coli EN0134: 2 µg/mL
[1]; MDR (blaCTX-M-14b, blaTEM-1C ...)
  MIC E. coli EN0138: 2 µg/mL
[1]; MDR (blaOXA-1, blaCTX-M-15 ...)
  MIC E. coli EN0139: 2 µg/mL
[1]; MDR (blaOXA-1, blaTEM-1B, blaCTX-M-15 ...)
  MIC E. coli EN0137: 2 µg/mL
[1]; MDR (blaOXA-2, blaTEM-1B, blaCTX-M-2 ...)
  MIC E. coli EN0136: 1 µg/mL
[1]; colistinR (mcr-1), MDR (rmtB ...)
  MIC E. coli EN0481: 8 µg/mL
[1]; colistinR (pmrB T156M), MDR
  MIC E. coli EN0303: 8 µg/mL
E. coli ATCC 25922
  MIC E. coli EN0001: 2 µg/mL
[2]; MBL (blaVIM-26), MDR
  MIC K. pneumoniae EN0144: 2 µg/mL
[2]; MDR (blaCTX-M-15 ...)
  MIC K. pneumoniae EN0145: 2 µg/mL
[2]; MDR (blaDHA-1 ...), OmpK36 loss
  MIC K. pneumoniae EN0140: 2 µg/mL
[2]; MDR (blaOXA-2, blaSHV-12 ...)
  MIC K. pneumoniae EN0143: 2 µg/mL
[2]; carbapenemR (blaKPC-2), MDR
  MIC K. pneumoniae EN0142: 2 µg/mL
[2]; carbapenemR (blaOXA-48), MDR, OmpK36 loss
  MIC K. pneumoniae EN0233: 32 µg/mL
[2]; colistinR (mgrB::IS10), MDR
  MIC K. pneumoniae EN0245: 64 µg/mL
[2]; colistinR, MDR
  MIC K. pneumoniae EN0504: 64 µg/mL
